The conditions of the data set: mouse liver microsomes, NADPH, 1 μM compound, 1 h incubation. (In general: Microsomes from liver hold many membrane-bound enzymes, among them those of drug oxidation.)

Structures are written as SMILES.

For the compound `O=C(NCCCCN1CCN(c2cccc3ccccc23)CC1)c1cnc2ccccc2c1` [Compound 32, N-(4-(4-(Naphthalen-1-yl)piperazin-1-yl)butyl)quinoline-3-carboxamide], the “in vitro rate constant (k)” value is listed as −0.017.

Source of the values: publication PMC4937837 (Journal of Medicinal Chemistry, 2015).
